According to ChEMBL document CHEMBL6109153, “Development of Membrane-Targeting Osthole Derivatives Containing Pyridinium Quaternary Ammonium Moieties with Potent Anti-Methicillin-Resistant Staphylococcus aureus Properties” (J Med Chem, 2025):
In brackets after ≈: the same amount, converted by molar mass.

What was measured:
Staphylococcus aureus [1] = assay: Antibacterial activity against methicillin-resistant Staphylococcus aureus M23 incubated for 16 to 20 hrs by broth microdilution method; assay type: functional; details: time 16-20 hrs
Staphylococcus aureus [2] = assay: Antibacterial activity against methicillin-resistant Staphylococcus aureus M11 incubated for 16 to 20 hrs by broth microdilution method; assay type: functional; details: time 16-20 hrs
Staphylococcus aureus [3] = assay: Antibacterial activity against methicillin-resistant Staphylococcus aureus M16 incubated for 16 to 20 hrs by broth microdilution method; assay type: functional; details: time 16-20 hrs
Staphylococcus aureus [4] = assay: Antibacterial activity against methicillin-resistant Staphylococcus aureus M22 incubated for 16 to 20 hrs by broth microdilution method; assay type: functional; details: time 16-20 hrs
Staphylococcus aureus [5] = assay: Antibacterial activity against Staphylococcus aureus ATCC 29213 incubated for 16 to 20 hrs by broth microdilution method; assay type: functional; details: time 16-20 hrs
Staphylococcus aureus [6] = assay: Antibacterial activity against methicillin-resistant Staphylococcus aureus M21 incubated for 16 to 20 hrs by broth microdilution method; assay type: functional; details: time 16-20 hrs
Staphylococcus aureus [7] = assay: Antibacterial activity against methicillin-resistant Staphylococcus aureus M17 incubated for 16 to 20 hrs by broth microdilution method; assay type: functional; details: time 16-20 hrs
Staphylococcus aureus [8] = assay: Antibacterial activity against methicillin-resistant Staphylococcus aureus M13 incubated for 16 to 20 hrs by broth microdilution method; assay type: functional; details: time 16-20 hrs
[9] = Hemolytic activity against sheep erythrocytes; assay type: toxicity, cell-based, Ovis aries, Erythrocyte
Staphylococcus aureus [10] = assay: Antibacterial activity against methicillin-resistant Staphylococcus aureus M20 incubated for 16 to 20 hrs by broth microdilution method; assay type: functional; details: time 16-20 hrs
Escherichia coli = assay: Antibacterial activity against Escherichia coli ATCC 25922 incubated for 16 to 20 hrs by broth microdilution method; assay type: functional; details: time 16-20 hrs
Staphylococcus aureus [11] = assay: Antibacterial activity against methicillin-resistant Staphylococcus aureus M14 incubated for 16 to 20 hrs by broth microdilution method; assay type: functional; details: time 16-20 hrs
Staphylococcus aureus [12] = assay: Antibacterial activity against methicillin-resistant Staphylococcus aureus M12 incubated for 16 to 20 hrs by broth microdilution method; assay type: functional; details: time 16-20 hrs

| Compound | MIC (Staphylococcus aureus [1]) | MIC (Staphylococcus aureus [2]) | MIC (Staphylococcus aureus [3]) | MIC (Staphylococcus aureus [4]) | MIC (Staphylococcus aureus [5]) | MIC (Staphylococcus aureus [6]) | MIC (Staphylococcus aureus [7]) | MIC (Staphylococcus aureus [8]) | HC50 [9] | MIC (Staphylococcus aureus [10]) | MIC (Escherichia coli) | MIC (Staphylococcus aureus [11]) | MIC (Staphylococcus aureus [12]) |
| --- | --- | --- | --- | --- | --- | --- | --- | --- | --- | --- | --- | --- | --- |
| CC(C)=CCc1c(OCCCSc2cc[n+](CC(=O)N(C(C)C)C(C)C)cc2)ccc2ccc(=O)oc12.[Br-] | 4 µg/mL | 2 µg/mL | 4 µg/mL | 4 µg/mL | 4 µg/mL | 4 µg/mL | 4 µg/mL | 8 µg/mL | > 160 µg/mL | 2 µg/mL | > 128 µg/mL | 2 µg/mL | 8 µg/mL |
| CC(C)=CCc1c(OCCCSc2cc[n+](CC(=O)N(C)c3ccccc3)cc2)ccc2ccc(=O)oc12.[Br-] | 8 µg/mL | 4 µg/mL | 8 µg/mL | 8 µg/mL | 8 µg/mL | 8 µg/mL | 8 µg/mL | 16 µg/mL | > 160 µg/mL | 4 µg/mL | > 128 µg/mL | 4 µg/mL | 16 µg/mL |
| CC(C)=CCc1c(OCCCSc2cc[n+](CC(=O)N3CCOCC3)cc2)ccc2ccc(=O)oc12.[Br-] | 128 µg/mL | 32 µg/mL | 64 µg/mL | 32 µg/mL | 128 µg/mL | 32 µg/mL | 64 µg/mL | 128 µg/mL | > 160 µg/mL | 64 µg/mL | > 128 µg/mL | 64 µg/mL | 128 µg/mL |
| CC(C)=CCc1c(OCCCCCSc2cc[n+](CC(=O)N(C)c3ccccc3)cc2)ccc2ccc(=O)oc12.[Br-] | 2 µg/mL | 2 µg/mL | 2 µg/mL | 4 µg/mL | 2 µg/mL | 4 µg/mL | 8 µg/mL | 4 µg/mL | > 160 µg/mL | 2 µg/mL | > 128 µg/mL | 2 µg/mL | 4 µg/mL |
| CCCCN(CCCC)C(=O)C[n+]1ccc(SCCCCOc2ccc3ccc(=O)oc3c2CC=C(C)C)cc1.[Br-] | 0.5 µg/mL | 1 µg/mL | 1 µg/mL | 0.5 µg/mL | 1 µg/mL | 0.5 µg/mL | 1 µg/mL | 2 µg/mL | > 160 µg/mL | 0.5 µg/mL | > 128 µg/mL | 1 µg/mL | 2 µg/mL |
| CCCCCNC(=O)C[n+]1ccc(SCCCOc2ccc3ccc(=O)oc3c2CC=C(C)C)cc1.[Br-] | 8 µg/mL | 2 µg/mL | 4 µg/mL | 2 µg/mL | 2 µg/mL | 2 µg/mL | 2 µg/mL | 8 µg/mL | > 160 µg/mL | 2 µg/mL | 64 µg/mL | 2 µg/mL | 4 µg/mL |
| CCCN(CCC)C(=O)C[n+]1ccc(SCCCCOc2ccc3ccc(=O)oc3c2CC=C(C)C)cc1.[Br-] | 2 µg/mL | 2 µg/mL | 2 µg/mL | 2 µg/mL | 2 µg/mL | 2 µg/mL | 2 µg/mL | 8 µg/mL | > 160 µg/mL | 1 µg/mL | > 128 µg/mL | 2 µg/mL | 4 µg/mL |
| CCCCN(CCCC)C(=O)C[n+]1ccc(SCCCCCOc2ccc3ccc(=O)oc3c2CC=C(C)C)cc1.[Br-] | 1 µg/mL | 0.5 µg/mL | 1 µg/mL | 1 µg/mL | 1 µg/mL | 1 µg/mL | 2 µg/mL | 1 µg/mL | > 160 µg/mL | 0.5 µg/mL | > 128 µg/mL | 0.5 µg/mL | 1 µg/mL |
| CCCCCCNC(=O)C[n+]1ccc(SCCCOc2ccc3ccc(=O)oc3c2CC=C(C)C)cc1.[Br-] | 2 µg/mL | 2 µg/mL | 4 µg/mL | 4 µg/mL | 1 µg/mL | 4 µg/mL | 4 µg/mL | 4 µg/mL | > 160 µg/mL | 2 µg/mL | 64 µg/mL | 2 µg/mL | 4 µg/mL |
| COc1ccc2ccc(=O)oc2c1CC=C(C)C [OSTHOLE] | > 64 µg/mL | > 64 µg/mL | 64 µg/mL (≈ 262 µM) | 64 µg/mL (≈ 262 µM) | > 64 µg/mL | > 64 µg/mL | 64 µg/mL (≈ 262 µM) | > 64 µg/mL | > 80 µg/mL | 64 µg/mL (≈ 262 µM) | > 64 µg/mL | 64 µg/mL (≈ 262 µM) | 64 µg/mL (≈ 262 µM) |
| CCCNC(=O)C[n+]1ccc(SCCCOc2ccc3ccc(=O)oc3c2CC=C(C)C)cc1.[Br-] | 8 µg/mL | 8 µg/mL | 8 µg/mL | 8 µg/mL | 8 µg/mL | 8 µg/mL | 16 µg/mL | 32 µg/mL | > 160 µg/mL | 8 µg/mL | > 128 µg/mL | 8 µg/mL | 16 µg/mL |
| CCCCNC(=O)C[n+]1ccc(SCCCCOc2ccc3ccc(=O)oc3c2CC=C(C)C)cc1.[Br-] | 4 µg/mL | 2 µg/mL | 2 µg/mL | 4 µg/mL | 8 µg/mL | 4 µg/mL | 4 µg/mL | 4 µg/mL | > 160 µg/mL | 2 µg/mL | > 128 µg/mL | 2 µg/mL | 4 µg/mL |
| CC(C)=CCc1c(OCCCCCSc2cc[n+](CC(=O)N(CC(C)C)CC(C)C)cc2)ccc2ccc(=O)oc12.[Br-] | 8 µg/mL | 8 µg/mL | 16 µg/mL | 2 µg/mL | 1 µg/mL | 2 µg/mL | 2 µg/mL | 8 µg/mL | > 160 µg/mL | 8 µg/mL | > 128 µg/mL | 8 µg/mL | 8 µg/mL |
| CC(C)=CCc1c(OCCCCCSc2cc[n+](CC(=O)N(C(C)C)C(C)C)cc2)ccc2ccc(=O)oc12.[Br-] | 2 µg/mL | 1 µg/mL | 4 µg/mL | 2 µg/mL | 2 µg/mL | 2 µg/mL | 2 µg/mL | 4 µg/mL | > 160 µg/mL | 2 µg/mL | > 128 µg/mL | 2 µg/mL | 4 µg/mL |
| CC(C)=CCc1c(OCCCCSc2cc[n+](CC(=O)N(C(C)C)C(C)C)cc2)ccc2ccc(=O)oc12.[Br-] | 2 µg/mL | 1 µg/mL | 2 µg/mL | 2 µg/mL | 2 µg/mL | 2 µg/mL | 2 µg/mL | 4 µg/mL | > 160 µg/mL | 1 µg/mL | > 128 µg/mL | 2 µg/mL | 4 µg/mL |
| C[C@@H](O)[C@H]1C(=O)N2C(C(=O)O)=C(S[C@@H]3CN[C@H](C(=O)N(C)C)C3)[C@H](C)[C@H]12 [MEROPENEM] | – | – | – | – | – | – | – | – | – | – | 0.063 µg/mL (≈ 0.164 µM) | – | – |
